Source: ChEMBL document CHEMBL1201862, “PubChem BioAssay data set” (2004)
Active and inactive are the calls of the source.

Legend:
[1] = viability loss in HeLa cells – cytotoxicity control for MgcRacGAP inhibitor project, dose response (AID 624300); type: functional
[2] = molecular target: T1, Rac GTPase-activating protein 1 (Homo sapiens, UniProt Q9H0H5); assay: blockers of MgcRacGAP-driven Rac1 GTP hydrolysis – biochemical, ADP Hunter fluorescence, primary and confirmatory, confirmation (AID 624330); type: functional
T1 sequence (Q9H0H5 whole entry): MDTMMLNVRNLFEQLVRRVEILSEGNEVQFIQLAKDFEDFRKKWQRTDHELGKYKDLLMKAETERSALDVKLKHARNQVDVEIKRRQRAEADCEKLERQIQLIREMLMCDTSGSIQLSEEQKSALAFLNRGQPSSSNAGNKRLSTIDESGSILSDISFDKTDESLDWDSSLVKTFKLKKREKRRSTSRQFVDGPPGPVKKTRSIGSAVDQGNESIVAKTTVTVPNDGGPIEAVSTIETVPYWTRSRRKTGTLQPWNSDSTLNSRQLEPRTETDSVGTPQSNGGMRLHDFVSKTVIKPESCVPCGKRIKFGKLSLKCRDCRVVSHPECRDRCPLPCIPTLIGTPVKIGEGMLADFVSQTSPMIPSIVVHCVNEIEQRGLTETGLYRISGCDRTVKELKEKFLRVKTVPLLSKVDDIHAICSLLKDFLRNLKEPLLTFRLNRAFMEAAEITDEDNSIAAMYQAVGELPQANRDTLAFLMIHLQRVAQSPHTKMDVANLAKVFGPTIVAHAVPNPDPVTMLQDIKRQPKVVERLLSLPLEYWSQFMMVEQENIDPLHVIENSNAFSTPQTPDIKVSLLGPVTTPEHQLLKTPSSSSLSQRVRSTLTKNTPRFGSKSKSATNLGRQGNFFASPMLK

[3] = molecular target: T2, Sentrin-specific protease 1 (Homo sapiens, UniProt Q9P0U3); assay: SENP1 catalytic domain blockers, concentration series – biochemical, kinetic FRET, dose response (AID 651697); type: functional; settings: read-out: IC50_Mean
[4] = molecular target: T2, Sentrin-specific protease 1; assay: Dose response confirmation of small molecule inhibitors of the catalytic domain of the SUMO protease, SENP1 in a FRET assay.; type: functional; settings: read-out: IC50_Mean
A-375 [5] = assay: MITF: Counter assay: A375 proliferation Measured in Cell-Based System Using Plate Reader - 2084-03_Inhibitor_Dose_DryPowder_Activity. [Related pubchem assays (depositor defined):AID488944]; type: functional; settings: Homo sapiens
[6] = molecular target: ATP-binding cassette sub-family B member 6 (Homo sapiens, UniProt Q9NP58); assay: concentration-dependent ABCB6 porphyrin transport blockade – K562-ABCB6 cells, flow cytometry, cherry pick 1, dose response (AID 623955); type: functional; settings: read-out: EC50_MICROM
CHO = CHO cell viability loss, potency – luminescence, cytotoxicity control for TLR9-MyD88 binding inhibitor project, dose response (AID 588339); type: functional, cell-based, hamster; settings: Cricetulus griseus;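 also: CHO cells stably coexpressing TLR9 and MyD88 fusions from primary screen; compound exposure lasted 48 hours before viability readout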
A-375 [7] = assay: proliferation inhibition in MITF-low A375 cells – cell-based, cherry-pick samples, set 2, counter-screen for MITF modulator project, dose response (AID 540335); type: functional; settings: Homo sapiens
[8] = non-specific 3'UTR reporter inhibition in Clone20-Shn3RL – cell-based, Renilla luciferase, cherry-picked, counter-screen for Shn3 inhibitor project, dose response (AID 624133); type: functional
Fatty acid synthase [9] = molecular target: T3, Fatty acid synthase (Homo sapiens, UniProt P49327); assay: inhibition of human FAS-TE enzyme activity – biochemical, kinetic fluorescence intensity, dose response (AID 624326); type: functional;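 also: rate of fluorescence rise from hydrolysis of a fluorogenic O-methyl fluorescein ester substrate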
Beta Lactamase = Beta Lactamase (Pseudomonas aeruginosa, UniProt Q932Y6); assay: BLA reporter interference, concentration series – BLA reporter cells, FRET fluorescence, artefact control for TLR9-MyD88 binding inhibitor project, dose response (AID 588341); type: cell-based;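 also: cell based assay in CHO-K1 cells stably expressing beta-lactamase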
[10] = Luminescence Cell-Based Dose Retest to Confirm Inhibitors of Cancer Stem Cells. [Related pubchem assays (depositor defined):AID2717, AID2721]; type: functional; settings: Homo sapiens
[11] = reduction of Shn3 3'UTR-driven luciferase in osteoblasts – cell-based, Clone20 osteoblasts, firefly luciferase, cherry-picked, dose response (AID 624132); type: functional;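 also: firefly luciferase luminescence from reporter carrying the Shn3 3'UTR in osteoblasts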
Fatty acid synthase [12] = molecular target: T3, Fatty acid synthase; assay: inhibition of human FAS-TE enzyme activity – biochemical, endpoint fluorescence intensity, uHTS hits, dose response (AID 624327); type: functional;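 also: fluorescence from hydrolysis of an O-methyl fluorescein acyl ester substrate by the enzyme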
[13] = molecular target: Type-1 angiotensin II receptor (Homo sapiens, UniProt P30556); assay: antagonism of angiotensin II type 1 receptor – cell-based, uHTS hits, selectivity assay for APJ receptor antagonist project, dose response (AID 463214); type: functional;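 also: antagonist potency against angiotensin II stimulated AT1 response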
[14] = molecular target: T4, Microphthalmia-associated transcription factor (Homo sapiens, UniProt O75030); assay: reducers of TRPM1 reporter luminescence, concentration series – cell-based, SK-MEL-5, cherry-picked, set 3, MITF inhibitor project, dose response (AID 493073); type: functional;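 also: SK-MEL-5 melanoma cells with luciferase driven by the MITF target TRPM1 promoter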
T4 sequence (O75030 whole entry): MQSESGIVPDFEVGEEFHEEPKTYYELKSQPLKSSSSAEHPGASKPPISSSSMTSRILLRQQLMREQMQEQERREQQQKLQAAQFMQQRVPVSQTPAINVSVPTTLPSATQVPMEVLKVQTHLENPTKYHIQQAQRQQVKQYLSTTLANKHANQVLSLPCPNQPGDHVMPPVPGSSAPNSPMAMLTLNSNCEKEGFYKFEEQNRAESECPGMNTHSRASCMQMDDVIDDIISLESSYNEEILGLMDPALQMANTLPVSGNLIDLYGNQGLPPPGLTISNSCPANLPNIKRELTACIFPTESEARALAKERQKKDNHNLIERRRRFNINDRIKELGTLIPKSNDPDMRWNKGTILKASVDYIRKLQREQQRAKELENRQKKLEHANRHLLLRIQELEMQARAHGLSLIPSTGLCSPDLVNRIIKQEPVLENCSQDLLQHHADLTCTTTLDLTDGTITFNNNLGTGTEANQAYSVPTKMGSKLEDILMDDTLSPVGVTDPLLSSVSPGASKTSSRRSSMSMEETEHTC

[15] = loss of viability in HepG2 cells – cell-based, CellTiter-Glo, cherry-picked, cytotoxicity control for Shn3 inhibitor project, dose response (AID 624134); type: functional
Beta-galactosidase [16] = molecular target: T5, Beta-galactosidase (Escherichia coli, UniProt Q8VNN2); assay: PubChem AID 485352; type: functional
[17] = molecular target: Heat shock protein HSP 90-alpha (Homo sapiens, UniProt P07900); type: functional, organism-based
Paired box protein Pax-8 = Paired box protein Pax-8 (Homo sapiens, UniProt Q06710); assay: PAX8 transcriptional activity inhibition in RMG-I – RMG-I cells, luciferase, cherry-pick, dose response (AID 687027); type: functional, cell-based;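 also: luciferase reporter driven by Pax8 target thyroperoxidase promoter measured by SteadyGlo luminescence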
[18] = molecular target: Photoreceptor-specific nuclear receptor (Homo sapiens, UniProt Q9Y5X4); type: functional, cell-based;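 also: CHO-S cells with Gal4-NCOR and VP16-NR2E3 two-hybrid luciferase reporter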
[19] = THP-1 cell cytotoxicity, dose response, cytotoxicity control for non-replicating M. tuberculosis project (AID 489025); type: functional
Nonstructural protein 1 = Nonstructural protein 1 (Influenza A virus, UniProt Q194T2); type: functional, Influenza A virus (A/California/07/2009(H1N1))
cells = type: functional
[20] = molecular target: Matrix metalloproteinase-14 (Homo sapiens, UniProt P50281); assay: Dose Response confirmation of uHTS hits for a small molecule inhibitors of MT1-MMP activation in a fluorescence assay set 1.; type: functional
INS1 = assay: INS-1E survival protection against cytokine death – cell-based, luminescence, retest, dose response (AID 449756); type: functional; settings: Rattus norvegicus;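 also: cell death triggered by IL-1 beta plus TNF-alpha plus IFN-gamma mixture; protective hits raise ATP signal compared with cytokine alone wells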
Beta-galactosidase [21] = molecular target: T5, Beta-galactosidase; assay: Dose response counterscreen for EBI2 assay utilizing the enzyme, b-galactosidase.; type: functional
[22] = molecular target: Benomyl/methotrexate resistance protein (Candida albicans, UniProt P28873); assay: Candida albicans Mdr1 pump inhibition curves – singleplex, Cherry Pick1 hits, dose response (AID 588608); type: functional

T3 sequence (P49327 whole entry): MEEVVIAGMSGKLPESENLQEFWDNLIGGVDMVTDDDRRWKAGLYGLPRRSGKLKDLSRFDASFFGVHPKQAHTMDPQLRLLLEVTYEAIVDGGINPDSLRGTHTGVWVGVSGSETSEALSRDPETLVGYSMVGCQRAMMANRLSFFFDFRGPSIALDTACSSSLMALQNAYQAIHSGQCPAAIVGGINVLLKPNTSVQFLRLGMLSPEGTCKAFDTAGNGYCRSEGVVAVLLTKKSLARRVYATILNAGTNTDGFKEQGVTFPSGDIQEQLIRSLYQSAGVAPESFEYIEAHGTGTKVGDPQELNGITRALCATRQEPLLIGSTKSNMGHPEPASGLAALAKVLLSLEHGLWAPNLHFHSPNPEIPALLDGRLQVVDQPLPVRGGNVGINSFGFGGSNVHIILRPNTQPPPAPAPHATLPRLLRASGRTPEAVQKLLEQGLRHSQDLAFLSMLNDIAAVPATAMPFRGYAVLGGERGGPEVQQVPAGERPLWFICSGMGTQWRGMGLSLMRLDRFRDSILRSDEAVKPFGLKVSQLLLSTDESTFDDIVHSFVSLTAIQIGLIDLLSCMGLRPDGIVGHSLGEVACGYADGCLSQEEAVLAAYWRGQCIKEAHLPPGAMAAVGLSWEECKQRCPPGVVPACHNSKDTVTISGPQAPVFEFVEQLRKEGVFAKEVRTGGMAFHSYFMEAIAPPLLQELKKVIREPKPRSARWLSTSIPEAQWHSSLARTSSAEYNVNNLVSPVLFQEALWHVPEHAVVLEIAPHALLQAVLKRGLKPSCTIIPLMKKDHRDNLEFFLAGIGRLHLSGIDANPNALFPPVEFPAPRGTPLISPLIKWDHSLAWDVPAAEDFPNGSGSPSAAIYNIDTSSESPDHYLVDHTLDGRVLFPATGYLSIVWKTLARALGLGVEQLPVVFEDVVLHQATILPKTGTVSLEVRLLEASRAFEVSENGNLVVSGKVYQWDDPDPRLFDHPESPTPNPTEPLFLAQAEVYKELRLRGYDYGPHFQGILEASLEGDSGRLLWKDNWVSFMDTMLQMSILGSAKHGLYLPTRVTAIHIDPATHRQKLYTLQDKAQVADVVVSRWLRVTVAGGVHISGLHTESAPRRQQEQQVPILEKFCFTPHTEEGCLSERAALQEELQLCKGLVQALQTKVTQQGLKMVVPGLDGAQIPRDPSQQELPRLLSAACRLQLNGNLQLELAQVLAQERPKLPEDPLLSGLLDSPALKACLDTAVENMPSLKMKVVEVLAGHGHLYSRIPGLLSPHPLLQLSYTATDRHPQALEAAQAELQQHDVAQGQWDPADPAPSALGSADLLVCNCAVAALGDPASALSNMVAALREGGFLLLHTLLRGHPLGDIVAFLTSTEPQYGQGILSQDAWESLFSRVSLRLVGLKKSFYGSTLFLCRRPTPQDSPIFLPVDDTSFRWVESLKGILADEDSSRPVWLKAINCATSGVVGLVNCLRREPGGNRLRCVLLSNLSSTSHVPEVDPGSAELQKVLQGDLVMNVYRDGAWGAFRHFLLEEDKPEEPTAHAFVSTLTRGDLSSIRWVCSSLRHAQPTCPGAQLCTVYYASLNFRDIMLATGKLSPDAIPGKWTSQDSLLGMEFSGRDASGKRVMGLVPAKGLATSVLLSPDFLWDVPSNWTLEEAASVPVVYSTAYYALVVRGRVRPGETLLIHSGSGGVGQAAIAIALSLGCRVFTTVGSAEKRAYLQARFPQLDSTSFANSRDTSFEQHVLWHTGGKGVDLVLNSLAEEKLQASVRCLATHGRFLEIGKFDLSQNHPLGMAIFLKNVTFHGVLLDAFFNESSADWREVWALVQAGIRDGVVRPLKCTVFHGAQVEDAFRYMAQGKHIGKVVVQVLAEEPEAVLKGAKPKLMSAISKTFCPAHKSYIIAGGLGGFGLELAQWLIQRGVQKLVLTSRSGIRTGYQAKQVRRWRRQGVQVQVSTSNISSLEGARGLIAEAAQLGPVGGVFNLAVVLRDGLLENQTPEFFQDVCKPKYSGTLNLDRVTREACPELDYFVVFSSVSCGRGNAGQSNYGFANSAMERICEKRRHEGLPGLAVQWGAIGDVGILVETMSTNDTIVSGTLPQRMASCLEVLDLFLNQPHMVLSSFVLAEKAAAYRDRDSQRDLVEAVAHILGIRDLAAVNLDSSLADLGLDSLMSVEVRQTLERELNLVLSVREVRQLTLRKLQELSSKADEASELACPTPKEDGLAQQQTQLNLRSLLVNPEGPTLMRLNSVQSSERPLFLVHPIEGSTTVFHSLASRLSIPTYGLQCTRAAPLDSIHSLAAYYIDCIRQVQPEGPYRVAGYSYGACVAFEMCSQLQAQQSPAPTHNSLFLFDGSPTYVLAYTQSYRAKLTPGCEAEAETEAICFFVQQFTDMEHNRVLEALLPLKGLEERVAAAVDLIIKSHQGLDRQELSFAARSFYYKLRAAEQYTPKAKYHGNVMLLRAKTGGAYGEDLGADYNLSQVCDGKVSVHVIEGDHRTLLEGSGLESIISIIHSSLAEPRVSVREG
T5 sequence (Q8VNN2 whole entry): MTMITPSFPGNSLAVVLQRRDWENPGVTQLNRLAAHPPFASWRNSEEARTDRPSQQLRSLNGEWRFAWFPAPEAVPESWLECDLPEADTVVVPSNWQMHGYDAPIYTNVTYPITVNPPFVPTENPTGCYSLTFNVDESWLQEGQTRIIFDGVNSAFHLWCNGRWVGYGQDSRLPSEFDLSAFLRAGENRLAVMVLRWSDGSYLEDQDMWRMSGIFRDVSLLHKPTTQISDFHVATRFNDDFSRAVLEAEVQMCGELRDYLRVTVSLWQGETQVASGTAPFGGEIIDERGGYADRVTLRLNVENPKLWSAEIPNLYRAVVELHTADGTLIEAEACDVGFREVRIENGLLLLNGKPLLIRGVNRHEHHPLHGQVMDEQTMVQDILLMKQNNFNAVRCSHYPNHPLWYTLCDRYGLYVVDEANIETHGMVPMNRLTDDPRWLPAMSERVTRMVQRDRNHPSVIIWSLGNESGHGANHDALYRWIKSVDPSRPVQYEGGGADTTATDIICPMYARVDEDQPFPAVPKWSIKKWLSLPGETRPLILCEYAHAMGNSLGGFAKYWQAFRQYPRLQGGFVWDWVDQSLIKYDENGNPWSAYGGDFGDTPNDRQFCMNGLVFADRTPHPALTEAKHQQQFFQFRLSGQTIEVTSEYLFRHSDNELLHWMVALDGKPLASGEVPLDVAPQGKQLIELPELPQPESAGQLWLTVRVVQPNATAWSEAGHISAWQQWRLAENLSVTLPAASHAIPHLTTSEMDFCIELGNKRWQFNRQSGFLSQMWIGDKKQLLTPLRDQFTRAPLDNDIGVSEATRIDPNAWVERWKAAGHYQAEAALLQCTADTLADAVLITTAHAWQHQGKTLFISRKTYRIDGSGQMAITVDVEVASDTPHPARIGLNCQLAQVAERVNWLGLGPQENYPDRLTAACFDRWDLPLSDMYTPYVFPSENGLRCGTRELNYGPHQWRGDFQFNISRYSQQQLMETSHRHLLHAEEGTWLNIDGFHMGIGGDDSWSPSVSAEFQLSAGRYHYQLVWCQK
T2 sequence (Q9P0U3 whole entry, the tested form may be a part): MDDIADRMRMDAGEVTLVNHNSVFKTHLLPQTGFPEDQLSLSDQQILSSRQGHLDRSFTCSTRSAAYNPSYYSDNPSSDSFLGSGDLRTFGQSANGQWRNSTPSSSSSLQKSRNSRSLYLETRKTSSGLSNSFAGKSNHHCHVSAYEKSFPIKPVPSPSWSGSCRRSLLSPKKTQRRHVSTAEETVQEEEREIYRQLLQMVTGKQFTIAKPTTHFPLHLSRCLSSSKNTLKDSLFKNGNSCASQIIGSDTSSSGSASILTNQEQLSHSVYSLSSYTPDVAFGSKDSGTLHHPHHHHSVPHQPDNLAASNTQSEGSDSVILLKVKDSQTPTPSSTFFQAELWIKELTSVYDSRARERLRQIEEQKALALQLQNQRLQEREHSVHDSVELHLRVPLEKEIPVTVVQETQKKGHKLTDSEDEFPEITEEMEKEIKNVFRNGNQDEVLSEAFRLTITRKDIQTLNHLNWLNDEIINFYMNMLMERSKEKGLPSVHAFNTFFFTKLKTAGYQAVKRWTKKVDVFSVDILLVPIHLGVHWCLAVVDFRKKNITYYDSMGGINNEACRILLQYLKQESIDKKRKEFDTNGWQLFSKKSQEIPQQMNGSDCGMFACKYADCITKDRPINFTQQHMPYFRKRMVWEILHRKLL
Chain of Paired box protein Pax-8 (Q06710 whole entry, the tested form may be a part): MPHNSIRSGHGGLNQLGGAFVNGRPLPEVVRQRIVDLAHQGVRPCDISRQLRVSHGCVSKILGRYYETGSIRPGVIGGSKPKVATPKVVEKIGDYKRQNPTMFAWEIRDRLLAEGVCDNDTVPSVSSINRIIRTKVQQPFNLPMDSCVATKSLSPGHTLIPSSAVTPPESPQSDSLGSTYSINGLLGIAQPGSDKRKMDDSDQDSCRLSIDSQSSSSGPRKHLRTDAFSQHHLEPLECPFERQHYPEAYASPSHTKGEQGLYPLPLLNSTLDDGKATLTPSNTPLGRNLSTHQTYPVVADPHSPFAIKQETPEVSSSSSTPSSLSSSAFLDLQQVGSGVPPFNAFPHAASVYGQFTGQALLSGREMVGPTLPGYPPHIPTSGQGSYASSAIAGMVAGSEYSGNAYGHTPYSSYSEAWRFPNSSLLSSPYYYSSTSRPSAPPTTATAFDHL
Chain of Type-1 angiotensin II receptor (P30556 whole entry): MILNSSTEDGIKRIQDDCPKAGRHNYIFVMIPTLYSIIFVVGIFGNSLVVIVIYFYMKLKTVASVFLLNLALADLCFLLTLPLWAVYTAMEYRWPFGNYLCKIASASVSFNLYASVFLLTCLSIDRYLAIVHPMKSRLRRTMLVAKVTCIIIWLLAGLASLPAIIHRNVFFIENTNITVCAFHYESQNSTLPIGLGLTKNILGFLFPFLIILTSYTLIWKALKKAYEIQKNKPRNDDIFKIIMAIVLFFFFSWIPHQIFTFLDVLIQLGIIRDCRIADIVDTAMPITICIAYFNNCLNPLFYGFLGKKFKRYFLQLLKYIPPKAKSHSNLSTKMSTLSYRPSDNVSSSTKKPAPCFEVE

CN(c1ccc(O)cc1)c1nc(-c2ccccc2)cs1
active: CC50 [1] 100 µM | IC50 [2] 57.7 µM

COc1ccc2sc(/C=C/c3ccccc3O)[n+](C)c2c1
active: IC50 [3] 14.3 µM | IC50 [4] 10.2 µM

O=C(Nc1ccc(F)cc1)c1nc(S(=O)(=O)Cc2ccccc2)ncc1Cl
inactive: EC50 (Beta-galactosidase [16]) > 40 µM
active: AC50 (A-375 [5]) > 11 µM | EC50 [6] 62.8 µM | IC50 (CHO) 2.79 µM | AC50 (A-375 [7]) > 11 µM | AC50 [8] 6.61 µM | IC50 (Fatty acid synthase [9]) 8.67 µM | IC50 (Beta Lactamase) 5.43 µM | AC50 [10] 1.63 µM | AC50 [11] 3.38 µM | IC50 (Fatty acid synthase [12]) 13.4 µM | IC50 [13] 11.8 µM | AC50 [14] 9.45 µM | AC50 [15] 22.6 µM | AC50 [17] 3.46 µM | AC50 (Paired box protein Pax-8) 10.4 µM

Cc1ccc(N/C(S)=C(\C#N)c2nc3ccccc3s2)cc1
active: IC50 [18] 1.49 µM

COc1ccc(Nc2ccccc2N)cc1
active: CC50 [19] 38.1 µM | IC50 (Nonstructural protein 1) 42.8 µM | IC50 (cells) 1.41 µM | IC50 [20] 8.32 µM

COc1cc(-c2nc3ccc(C)cn3c2NCc2ccccc2)ccc1-c1cccc(Cl)c1
inactive: IC50 (Beta-galactosidase [21]) 96 µM
active: AC50 (INS1) 5.14 µM

Cc1ccc(C)c(C(=O)COC(=O)c2ccc(C)c(S(=O)(=O)N3CCOCC3)c2)c1
active: EC50 [22] 0.704 µM
